{"source": "patent US9655862B2", "about": "“Ocular nanoformulation and method of use in angiogenesis-mediated disorders” (priority 2013, dated 2017)", "key": {"[1]": {"system": "neovascularization secondary to ROP", "details": "intravitreal injection; cited from earlier work"}, "[2]": {"system": "Neovascularization-mediated by VEGF+FGF2", "test": "Chick chorioallantoic membrane (CAM) model of angiogenesis", "type": "in vivo", "details": "VEGF and FGF2 at 1 μg/ml each, SNACH 2 ug/CAM, 3-day incubation", "experimental": "The effect of SNACH on Neovascularization-mediated by VEGF+FGF2 was examined in the CAM model. Briefly, ten-day old chick embryos were purchased from Spafas, Inc. (Preston, Conn.) and incubated at 37° C. with 55% relative humidity. A hypodermic needle was used to make a small hole in the shell at the air sac and a second hole will be made on the broadside of the egg, directly over an avascular portion of the embryonic membrane that will be identified by candling. A false air sac was created beneath the second hole by the application of negative pressure at the first hole, causing the CAM to separate from the shell. A window, approximately 1.0 cm^2, was cut in the shell over the dropped CAM with a small crafts grinding wheel (Dremel, Division of Emerson Electric Co., Racine, Wis.), allowing direct access to the underlying CAM. […] Digital images of CAM sections exposed to filters were collected, using a 3-CCD color video camera system (Toshiba America, New York, N.Y.), and analyzed with Image-Pro software (Media Cybernetics, Silver Spring, Md.). The numbers of vessel branch points contained in a circular region equal to the area of each filter disk were counted. One image were counted in each CAM preparation, and findings from 6-8 CAM preparations/group were analyzed for each treatment condition."}, "[3]": {"system": "retinal neovascularization", "test": "Oxygen-induced retinopathy mouse model (retinopathy of prematurity), retinal neovascularization", "type": "in vivo", "experimental": "SNACH and SNACH Nanoparticles (1 mg/kg) in PBS at pH 7-7.5, Control: PBS at 1 mg/ml on postnatal day 12 and 15, Mode of Administration: Intraperitoneal or eye drops.\nAn animal model of a mice model was used. The mice model used was the Oxygen-induced retinopathy mouse model as described by Smith L E, W. E., McLellan A, Kostyk S K, D'Amato R, Sullivan R, D'Amore P A. (1994), “Oxygen-induced retinopathy in the mouse”, Invest Ophthalmol Vis Sci 35(1): 101-111.\nThe neonatal mice were exposed to hyperoxic conditions for 5 days, beginning at age p7 for the pups and continuing through p12 when they are returned to normal oxygen atmosphere (8-10 animals/group). Treatment group SNACH at 1 mg/kg administered IP or eye drops at two separate doses one at P12 and the other at P15. Day 17 animals were scarified and eyes removed for retinal Neovascularization evaluation. The removed eyes were stained with H&E stain. Additionally in upcoming study 3 additional animals per group were used for ocular tissue levels of SNACH after SNACH administration by LC/MS/MS.\nInduction of oxygen-induced retinopathy in mouse model, in accordance with embodiments of the present invention. […]"}, "[4]": {"system": "choroidal neovascular membranes", "details": "wet AMD, Phase 3 clinical trials; cited from earlier work"}}, "note": "Entries after “also recorded” stand apart in the source; their conditions may differ.", "data": [{"molecule": "bevacizumab", "values": [{"measurement": "regression of neovascularization secondary to ROP", "setting": "[1]", "value": "regression of neovascularization"}]}, {"molecule": "sulfated non-anticoagulant heparin [SNACH]", "values": [{"measurement": "inhibition of angiogenesis induced by VEGF and FGF2", "setting": "[2]", "value": "maximal inhibition of angiogenesis; also recorded: potent angiogenesis inhibitors"}, {"measurement": "neovascular regression in ROP mice model", "setting": "[3]; ROP mice", "value": "causes neovascular regression"}, {"measurement": "inhibition of retinal neovascularization (mean total area of neovascularization)", "setting": "[3]; neonatal mouse, 1.0 mg/kg, IP on day 12 and 15", "value": "60-70%"}]}, {"molecule": "ranibizumab (antibody, chains of the INN, looked up, V domains shown, Fab, anti-VEGF pharmacotherapy (Lucentis, Genentech)) VH: EVQLVESGGGLVQPGGSLRLSCAASGYDFTHYGMNWVRQAPGKGLEWVGWINTYTGEPTYAADFKRRFTFSLDTSKSTAYLQMNSLRAEDTAVYYCAKYPYYYGTSHWYFDVWGQGTLVTVSS VL: DIQLTQSPSSLSASVGDRVTITCSASQDISNYLNWYQQKPGKAPKVLIYFTSSLHSGVPSRFSGSGSGTDFTLTISSLQPEDFATYYCQQYSTVPWTFGQGTKVEIK", "values": [{"measurement": "regression of choroidal neovascular membranes", "setting": "[4]", "value": "regression of choroidal neovascular membranes"}]}]}
